# Test results taken from patent publication US8372830B2, “Methods for using vasopressin antagonists with anthracycline chemotherapy agents to reduce cardiotoxicity and/or improve survival” (Otsuka Pharmaceutical Co., Ltd., priority 2007, dated 2013).
# Assays:
# [1] = system: left ventricle; test: Invasive hemodynamic measurement of cardiac contractility at end of 10 weeks (Example 4); type: in vivo, rat; conditions: tolvaptan-treated vs vehicle-treated doxorubicin rats, FIG. 12
# Protocol: Control rats were not treated. For groups 2 and 3 with doxorubicin treatment, rats were given three injections intravenously of doxorubicin (3 mg/kg each) every other day (total dose of 9 mg/kg). […] Rats were given either vehicle or tolvaptan (10 mg/kg) daily starting on the first day of doxorubicin injection. On the days with co-administration of doxorubicin and tolvaptan, tolvaptan was given by oral gavage 45 min prior to the intravenous injection of doxorubicin.
# Invasive hemodynamic measurements were performed at the end of the 10 week period.
# [2] = Plasma concentration of doxorubicin with vehicle or tolvaptan (Example 3); type: in vivo, rat; conditions: after first (day 1) and sixth (day 13) doxorubicin injection; tolvaptan vs vehicle; FIG. 6
# Protocol: (§1) To determine whether tolvaptan affects the plasma concentration of doxorubicin, plasma samples were obtained after the first (day 1) and sixth (day 13) injection of doxorubicin with vehicle or tolvaptan, and the plasma concentration of doxorubicin was measured.
# [3] = system: total white blood cell (WBC) and lymphocyte (LY) counts; test: Myelosuppression: blood cell counts after doxorubicin (Example 3)
# Protocol: as §1
# Anthracyclines including doxorubicin are known to cause myelosuppression due to their ability to intercalate into DNA, and to inhibit new protein synthesis and cell proliferation in the bone marrow (similar mechanisms are involved in the inhibition of cancer cell proliferation). Myelosuppression was used as an index of the ability of doxorubicin to inhibit cell proliferation and anti-cancer effect. […] Blood samples were taken after 1 or 13 days of treatment with doxorubicin.
# [4] = system: left ventricle; test: Echocardiography of cardiac function, rat model with intravenous injection of doxorubicin (Example 4); type: in vivo
# Protocol: In a clinical setting, doxorubicin is administered intravenously to cancer patients. Furthermore, the major side effect associated with doxorubicin treatment is cardiac dysfunction and development of CHF. Therefore, the effect of tolvaptan on CHF was evaluated in a rat model with intravenous injection of doxorubicin. Cardiac function was determined using high resolution ultrasonograpy. Rats were divided into 3 groups as described in Table 2, and observed for 10 weeks. [table] Control rats were not treated. […] Rats were given either vehicle or tolvaptan (10 mg/kg) daily starting on the first day of doxorubicin injection. On the days with co-administration of doxorubicin and tolvaptan, tolvaptan was given by oral gavage 45 min prior to the intravenous injection of doxorubicin. Cardiac function was evaluated using echocardiography (Vevo 770, Visualsonics Inc, Toronto, Canada). Echo images were taken once a week for 10 consecutive weeks. Rats were anesthetized with Isoflurane and parasternal long and short axis echo images were recorded. Offline analysis of cardiac function (ejection fraction and fraction shortening) and anatomic data of the heart (LV end diastolic diameter and volume) were performed. At the end of the 10-week period, cardiac contractility (LVdp/dtmax/ip) was measured invasively.
# [5] = system: doxorubicin toxicity under elevated vasopressin condition
# Protocol: This condition may be relevant to certain cancer patients who have elevated vasopressin release and are undergoing chemotherapy, such as with doxorubicin.
# Two groups of rats were studied and the protocol is described in FIG. 13. Rats were intravenously injected with doxorubicin (3 mg/kg) 3 times once every other day for a total of 9 mg/kg (same as described in Example 4). One group (Dox+DDAVP) was given vehicle and the other group (Dox+DDAVP+Tol) was administered tolvaptan (10 mg/kg) once daily. An osmotic minipump (infusion rate: 0.15 μl/h, ALZET model 2006, ALZA Corporation) was implanted in each rat for continuous subcutaneous infusion of 1 ng/h of DDAVP (a vasopressin V2 agonist [deamino-Cys1, D-Arg8]-vasopressin).
# [6] = system: doxorubicin-induced cardiac toxicity and animal death; test: Survival of rats given repeated intraperitoneal injections of doxorubicin (Example 1); type: in vivo, rat; conditions: tolvaptan 10 mg/kg orally daily
# Protocol: Repeated injection of doxorubicin in animals is known to cause cardiac injury and to increase mortality. A study was designed to investigate the effect of tolvaptan on doxorubicin-induced cardiac toxicity and animal death. Four groups of rats were evaluated; all with 6 injections of doxorubicin (2.5 mg/kg each) during a two week period. To test the ability of tolvaptan to prevent toxicity, tolvaptan (10 mg/kg orally) daily was given to one group of rats (Tol+Dox). Another group of rats was given vehicle only (Veh+Dox). To test the ability of tolvaptan to reverse the toxicity, tolvaptan (10 mg/kg orally) daily was given to one group of rats, starting after the completion of doxorubicin administration (Dox+Tol). Another group of rats was given vehicle only (Dox+Veh). Table 1 summarizes the group designations:
# Survival was analyzed using Kaplan-Meier survival analysis with the Log-Rank test.
# [7] = system: doxorubicin-induced mortality; test: DDAVP infusion and doxorubicin-induced mortality (Example 2); type: in vivo, rat; conditions: DDAVP 1 ng/h s.c. infusion 14 days + doxorubicin 6 x 2.5 mg/kg i.p.; vs doxorubicin alone; p<0.001 Log-Rank; FIG. 4
# Protocol: The present inventors investigated whether activation of V2 receptors can accelerate doxorubicin-induced mortality. A continuous subcutaneous infusion of 1 ng/h of DDAVP (deamino-Cyst, D-Arg-vasopressin) per animal was accomplished using an osmotic minipump (infusion rate: 0.5 μL/h, ALZET model 2002, DURECT Corporation, Cupertino, Calif.) for 14 days. On day 0 an osmotic minipump was implanted subcutaneously. The sham control rats had the same surgical procedure but with only saline in the minipump. The rats were then divided into two groups: one with six intraperitoneal injections of doxorubicin (2.5 mg/kg) during a 13 day period, and one with injections of saline. The rats were fed with liquid food throughout the experiment. With the continuous infusion of DDAVP, liquid food feeding increases systemic volume overload and edema, conditions often observed in CHF patients.
# [8] = system: doxorubicin-treated rats; conditions: antagonist given several weeks after doxorubicin, previous study (ref. 25); cited from earlier work
# [9] = thirteen-day treatment with doxorubicin, FIG. 7
compound,measurement,setting,value
"Cc1ccccc1C(=O)Nc1ccc(C(=O)N2CCCC(O)c3cc(Cl)ccc32)c(C)c1 (centres unmarked) [tolvaptan, 7-chloro-5-hydroxy-1-[2-methyl-4-(2-methylbenzoyl-amino)benzoyl]-2,3,4,5-tetrahydro-1H-benzazepine]",contractility index (LVdp/dtmax normalized to instantaneous LV pressure),[1],higher
same,effect on plasma concentration of doxorubicin,[2],did not affect
same,effect on the myelosuppressive effect of doxorubicin,"[3]; rat, in vivo",did not affect
same,"cardiac function (fractional shortening, ejection fraction)","[4]; tolvaptan 10 mg/kg orally daily from first day of doxorubicin, vs vehicle, FIGS. 8 and 9",significantly improved
same,remodeling process of the left ventricle,"[4]; tolvaptan 10 mg/kg orally daily with doxorubicin, FIGS. 10 and 11",slowed
same,survival (Kaplan-Meier),"[5]; tolvaptan 10 mg/kg once daily, Dox+DDAVP+Tol vs Dox+DDAVP, FIG. 14",significantly improved
same,delay of rat death,"[6]; initiated after completion of 6 doxorubicin injections, 5 rats per group, FIG. 2",only a small delay
same,protective effect on mortality,"[6]; initiated after completion of 6 doxorubicin injections, FIG. 2",largely lost
same,"mortality rate (Kaplan-Meier survival analysis, Log-Rank test)","[6]; starting with first doxorubicin injection (6 x 2.5 mg/kg i.p.), 12 weeks, vs vehicle, p<0.001, FIG. 1",significantly reduced
"NC(=O)CC[C@@H]1NC(=O)[C@H](Cc2ccccc2)NC(=O)[C@H](Cc2ccc(O)cc2)NC(=O)CCSSC[C@@H](C(=O)N2CCC[C@H]2C(=O)N[C@H](CCCN=C(N)N)C(=O)NCC(N)=O)NC(=O)[C@H](CC(N)=O)NC1=O [DDAVP, [deamino-Cys1, D-Arg8]-vasopressin]",death rate from doxorubicin,[7],significantly accelerated
same,toxicity of doxorubicin under DDAVP infusion,"[5]; DDAVP 1 ng/h s.c. infusion + doxorubicin 3 x 3 mg/kg i.v., FIG. 14",very toxic
same,time in which rats died,"[5]; DDAVP 1 ng/h s.c. infusion + doxorubicin 3 x 3 mg/kg i.v., vehicle",2 weeks
COc1cccc2c1C(=O)c1c(O)c3c(c(O)c1C2=O)C[C@@](O)(C(=O)CO)C[C@@H]3O[C@H]1C[C@H](N)[C@H](O)[C@H](C)O1 [doxorubicin],blood cell counts,[3]; one day treatment with doxorubicin,did not affect
same,lymphocyte (LY) count,[3]; [9],significantly reduced
same,total white blood cell (WBC) count,[3]; [9],significantly reduced
same,fractional shortening of the left ventricle,"[4]; doxorubicin 3 x 3 mg/kg i.v. every other day, weekly echo for 10 weeks, FIG. 8",progressively decreased
same,ejection fraction of the left ventricle,"[4]; doxorubicin 3 x 3 mg/kg i.v. every other day, weekly echo for 10 weeks, FIG. 9",progressively decreased
same,left ventricle diastolic volume,"[4]; doxorubicin 3 x 3 mg/kg i.v., weight adjusted, FIG. 10",progressively increased
same,left ventricle diastolic diameter,"[4]; doxorubicin 3 x 3 mg/kg i.v., weight adjusted, FIG. 11",progressively increased
Cc1ccccc1C(=O)Nc1ccc(C(=O)N2CCCC(N(C)C)c3ccccc32)cc1 (centres unmarked) [OPC-31260],mortality rate,[8],slight but not significant reduction
